From patent US5693626A, “Tetrahydrofuran antifungals” (Schering Corporation, priority 1995, dated 1997)
≈ marks a conversion by molar mass, not a printed value.

Key:
Aspergillus [1] = test: broth dilution MIC, Aspergillus; type: cell-based, Aspergillus (flavus, fumigatus and other species); conditions: for percentage of strains with MICs ≤1 mcg/ml / MIC90: Aspergillus, 37 strains; for percentage of strains with MICs ≤1 mcg/ml: Table Q; for MIC90: Table S
Candida albicans [2] = test: broth dilution MIC, Candida albicans; type: cell-based; conditions: 26 strains; for percentage of strains with MICs ≤1 mcg/ml: Table Q; for MIC90: Table S
Procedure: (§1) The in vitro antifungal activity tests were performed via conventional broth dilution methods in Sabouraud dextrose broth ("SDB") medium and Eagles Minimum Essential Medium ("EMEM") against a large number of fungi. Minimum Inhibitory Concentrations ("MICs") were measured after 24, 48 and 72 hour tests. In many cases, Minimum Fungicidial Concentrations ("MFCS") were measured after 48 and 72 hours.

Candida krusei [3] = test: broth dilution MIC, Candida krusei; type: cell-based; conditions: 16 strains; for percentage of strains with MICs ≤1 mcg/ml: Table Q; for MIC90: Pichia kudriavzevii, Table S
[4] = system: Candida tropicalis & stellatoidea; test: broth dilution MIC, Candida tropicalis & stellatoidea; type: cell-based; conditions: 5 strains; for percentage of strains with MICs ≤1 mcg/ml: Table Q; for MIC90: Table S
Procedure: as §1

Candida glabrata [5] = test: broth dilution MIC, Candida glabrata; type: cell-based; conditions: 9 strains; for percentage of strains with MICs ≤1 mcg/ml: Table Q
Procedure: as §1

Cryptococcus neoformans [6] = test: broth dilution MIC, Cryptococcus neoformans; type: cell-based; conditions: 3 strains; for percentage of strains with MICs ≤1 mcg/ml: Table Q; for MIC90: Table S
Procedure: as §1

Dermatophytes [7] = test: broth dilution MIC, Dermatophytes; type: cell-based, T. rubrum, T. mentagrophytes, and T. tonsurans; conditions: 6 strains; for percentage of strains with MICs ≤1 mcg/ml: Table Q; for MIC90: Table S
Aspergillus [8] = test: broth dilution MFC, Aspergillus; type: cell-based, Aspergillus (flavus, fumigatus and other species); conditions: for percentage of strains with MFCs ≤1 mcg/ml: Aspergillus, 37 strains, Table R
Candida krusei [9] = test: broth dilution MFC, Candida krusei; type: cell-based; conditions: 16 strains, Table R
Procedure: as §1

Candida glabrata [10] = test: broth dilution MFC, Candida glabrata; type: cell-based; conditions: 9 strains, Table R
Procedure: as §1

Cryptococcus neoformans [11] = test: broth dilution MFC, Cryptococcus neoformans; type: cell-based; conditions: 3 strains, Table R
Procedure: as §1

Dermatophytes [12] = test: broth dilution MFC, Dermatophytes; type: cell-based, T. rubrum, T. mentagrophytes, and T. tonsurans; conditions: 6 strains, Table R
Procedure: as §1

Candida albicans [13] = test: broth dilution MFC, Candida albicans; conditions: 26 strains, Table R
Procedure: as §1

[14] = system: Candida tropicalis & stellatoidea; test: broth dilution MFC, Candida tropicalis & stellatoidea; conditions: 5 strains, Table R
Procedure: as §1

[15] = Janssen U.S. Pat. No. 4,791,111; cited from earlier work
[16] = serum levels following oral dosing, mice; type: in vivo; conditions: methyl cellulose formulation
[17] = serum levels following oral dosing, rats; type: in vivo; conditions: methyl cellulose formulation
[18] = serum levels following oral dosing, dogs; type: in vivo; conditions: methyl cellulose formulation
[19] = serum levels following oral dosing, monkeys; type: in vivo; conditions: methyl cellulose formulation
[20] = system: cytochrome P-450 liver drug metabolizing enzymes; test: induction of cytochrome P-450 after oral administration in an in vivo rat model

| SMILES | percentage of strains with MICs ≤1 mcg/ml (Aspergillus [1]) | percentage of strains with MICs ≤1 mcg/ml (Candida albicans [2]) | percentage of strains with MICs ≤1 mcg/ml (Candida krusei [3]) | MIC90 (Candida krusei [3]) | percentage of strains with MICs ≤1 mcg/ml [4] | MIC90 [4] | percentage of strains with MICs ≤1 mcg/ml (Candida glabrata [5]) | percentage of strains with MICs ≤1 mcg/ml (Cryptococcus neoformans [6]) | MIC90 (Cryptococcus neoformans [6]) | percentage of strains with MICs ≤1 mcg/ml (Dermatophytes [7]) | MIC90 (Dermatophytes [7]) | percentage of strains with MFCs ≤1 mcg/ml (Aspergillus [8]) | percentage of strains with MFCs ≤1 mcg/ml (Candida krusei [9]) | percentage of strains with MFCs ≤1 mcg/ml (Candida glabrata [10]) | percentage of strains with MFCs ≤1 mcg/ml (Cryptococcus neoformans [11]) | percentage of strains with MFCs ≤1 mcg/ml (Dermatophytes [12]) | percentage of strains with MFCs ≤1 mcg/ml (Candida albicans [13]) | percentage of strains with MFCs ≤1 mcg/ml [14] | MIC90 (Aspergillus [1]) | MIC90 (Candida albicans [2]) | further results |
| --- | --- | --- | --- | --- | --- | --- | --- | --- | --- | --- | --- | --- | --- | --- | --- | --- | --- | --- | --- | --- | --- |
| CC[C@H]([C@H](C)O)n1ncn(-c2ccc(N3CCN(c4ccc(OC[C@@H]5CO[C@@](Cn6cncn6)(c6ccc(F)cc6F)C5)cc4)CC3)cc2)c1=O | 100 percentage of strains | 100 percentage of strains | 100 percentage of strains | 0.058 µg/mL (≈ 0.0828 µM) | 100 percentage of strains | 0.117 µg/mL (≈ 0.167 µM) | 22 percentage of strains | 100 percentage of strains | 0.05 µg/mL (≈ 0.0713 µM) | 100 percentage of strains | 0.165 µg/mL (≈ 0.235 µM) | 50 percentage of strains | 88 percentage of strains | 22 percentage of strains | 100 percentage of strains | 67 percentage of strains | 100 percentage of strains | 100 percentage of strains |  |  |  |
| CC[C@@H]([C@@H](C)O)n1ncn(-c2ccc(N3CCN(c4ccc(OC[C@@H]5CO[C@@](Cn6cncn6)(c6ccc(F)cc6F)C5)cc4)CC3)cc2)c1=O | 100 percentage of strains | 100 percentage of strains | 100 percentage of strains | 0.12 µg/mL (≈ 0.171 µM) | 100 percentage of strains | 0.354 µg/mL (≈ 0.505 µM) | 33 percentage of strains | 100 percentage of strains | 0.101 µg/mL (≈ 0.144 µM) | 100 percentage of strains | 0.707 µg/mL (≈ 1.01 µM) | 89 percentage of strains | 100 percentage of strains | 22 percentage of strains | 100 percentage of strains | 100 percentage of strains | 100 percentage of strains | 100 percentage of strains | 0.112 µg/mL (≈ 0.16 µM) | 0.139 µg/mL (≈ 0.198 µM) |  |
| CC(O)C(C)n1ncn(-c2ccc(N3CCN(c4ccc(OCC5COC(Cn6cncn6)(c6ccc(Cl)cc6Cl)O5)cc4)CC3)cc2)c1=O (single isomer, unassigned; (+)) [(+)cis-4-[4-[4-[4-[[2-2,4-dichlorophenyl)-2-(1H-1,2,4-triazol-1-ylmethyl)-1,3-dioxolan-4-yl]methoxy]phenyl]-1-piperazinyl]-2,4dihydro-2-(2-hydroxy-1-methylpropyl)-3H-1,2,4-triazol-3-one] |  |  |  |  |  |  |  |  |  |  |  |  |  |  |  |  |  |  |  |  | solubility [15]: increased solubility |
| CC[C@@H]([C@H](C)O)n1ncn(-c2ccc(N3CCN(c4ccc(OC[C@@H]5CO[C@@](Cn6cncn6)(c6ccc(F)cc6F)C5)cc4)CC3)cc2)c1=O [drawing 21] |  |  |  |  |  |  |  |  |  |  |  |  |  |  |  |  |  |  |  |  | serum levels compared to azoles of similar structure [16]: consistently higher serum levels; serum levels compared to azoles of similar structure [17]: consistently higher serum levels; serum levels compared to azoles of similar structure [18]: consistently higher serum levels; serum levels compared to azoles of similar structure [19]: consistently higher serum levels; induction of cytochrome P-450 liver drug metabolizing enzymes [20]: not inducers |
| CC[C@@H]([C@H](C)O)n1ncn(-c2ccc(N3CCN(c4ccc(OC[C@@H]5CO[C@@](Cn6cncn6)(c6ccc(F)cc6F)C5)cc4)CC3)cc2)c1=O [drawing 23] | 100 percentage of strains | 100 percentage of strains | 100 percentage of strains | 0.014 µg/mL (≈ 0.02 µM) | 100 percentage of strains | 0.117 µg/mL (≈ 0.167 µM) | 22 percentage of strains | 100 percentage of strains | 0.007 µg/mL (≈ 0.00999 µM) | 100 percentage of strains | 0.101 µg/mL (≈ 0.144 µM) | 62 percentage of strains | 94 percentage of strains | 22 percentage of strains | 100 percentage of strains | 83 percentage of strains | 100 percentage of strains | 100 percentage of strains | 0.096 µg/mL (≈ 0.137 µM) | 0.174 µg/mL (≈ 0.248 µM) | MIC90 (Candida glabrata [5]; Nakaseomyces glabratus, Table S): 17.1 µg/mL (≈ 24.4 µM) |
| OC(Cn1cncn1)(Cn1cncn1)c1ccc(F)cc1F [fluconazole, reference compound] | 0 percentage of strains | 100 percentage of strains | 0 percentage of strains |  | 100 percentage of strains |  | 0 percentage of strains | 0 percentage of strains |  | 100 percentage of strains |  | 0 percentage of strains | 0 percentage of strains | 0 percentage of strains | 0 percentage of strains | 0 percentage of strains | 100 percentage of strains | 100 percentage of strains |  |  | MIC (Aspergillus [1]; SDB, 37 species of Aspergillus, bounds printed with ≤, b40, read-out: geometric mean MIC): ≤ 32 µg/mL; MFC (Aspergillus [8]; SDB, 37 species of Aspergillus, bounds printed with ≤, b40, read-out: geometric mean MFC): ≤ 32 µg/mL |
